Assay results: patent publication US12091701B2, “Screening method for candidate substances for active component to prevent or treat at least one disease selected from the group consisting of renal hypofunction, chronic kidney disease and kidney failure” (KARYDO THERAPEUTIX, INC., priority 2016, dated 2024)

Legend:
[1] = test system: PRP genes (Prb1, Prh1, Prp2, and Prpmp5) (the parotid glands); conditions: mice on diet with high phosphorus content 4 weeks; 10 mg/kg intraperitoneally weekly, five times; vs physiological saline; n=5 to 6
Experimental: After the wet weights of the collected organs and tissue were measured, the organs and tissue were rapidly frozen in liquid nitrogen and stored at −80° C.

FGF23 gene (the skull) = assay: qRT-PCR of FGF23 in the skull of HP model mice given soluble human Oscar-Fc fusion protein; type: in vivo, mice (C57BL/6N); conditions: mice on diet with high phosphorus content (2% inorganic phosphorus) 4 weeks; 10 mg/kg intraperitoneally weekly, five times; vs physiological saline; normalized to Maea; p=0.026; n=5 to 6
Excerpt: (§1) Subsequently, the mixture was vortexed vigorously for 15 seconds.

FGF23 in plasma = assay: Measurement of concentration of FGF23 in plasma by ELISA method in HP model mice; type: in vivo, mice (C57BL/6N); conditions: mice on diet with high phosphorus content 4 weeks; 10 mg/kg intraperitoneally weekly, five times; vs physiological saline; p=0.049
Experimental: The concentration of FGF23 in plasma was measured using an ELISA kit sold by KAINOS Laboratories, Inc. (TCY4000). A plasma sample cryopreserved in a freezer was thawed on ice, and the sample undiluted or the sample diluted 5-fold with standard solution 1 (FGF-23 concentration, 0 pg/ml) supplied with the kit was used for measurement.
50 μl of the diluted sample or a sample for a calibration curve was added to each well of an ELISA plate supplied with the kit. The plate was sealed, followed by stirring and incubating at room temperature for 2 hours. After the two hours, the sample in each well was aspirated and discarded. 300 μl of a wash solution supplied with the kit was then added to each well, and the wash solution was removed. This operation was performed four times. After the wash solution was thoroughly removed, 100 μl of an enzyme-labeled antibody solution (FGF-23 Conjugate) supplied with the kit was added to each well, and the plate was sealed, followed by stirring and incubating at room temperature for 1 hour. After the 1 hour, the sample in each well was aspirated and discarded. […] Absorbance at 450 nm was then measured with an absorbance microplate reader (Multiskan GO, Thermo Fisher Scientific Inc.). The concentration of FGF23 in plasma was calculated by making a calibration curve from the measurement result of recombinant FGF23 supplied with the kit.

Fgg gene (kidneys) = assay: qRT-PCR of Fgg gene (fibrinogen) in the kidneys of HP model mice given soluble Oscar-Fc fusion protein; type: in vivo, mice (C57BL/6N); conditions: HP4W_sOscar vs HP4W_NS; diet with high phosphorus content 4 weeks; p=0.00071; n=5 to 6
Excerpt: as §1
To evaluate the effect of the soluble Oscar-Fc fusion protein on kidney function, the expression of a kidney function marker was confirmed in the kidneys of HP4W_NS, HP4W_sOscar, and LP4W of Reference Example 2.

soluble human Oscar-Fc fusion protein: Soluble human Oscar-Fc fusion protein of SEQ ID NO: 2 (human Oscar sequence, hinge, human IgG1); inhibits ligand binding to Oscar
expression of PRP genes (Prb1, Prh1, Prp2, and Prpmp5) in the parotid glands (qRT-PCR) [1]: suppressed
expression of FGF23 in the skull (qRT-PCR) (FGF23 gene (the skull)): suppressed
increase in the concentration of FGF23 in plasma (ELISA) (FGF23 in plasma): statistically significantly suppressed
expression of the Fgg gene in the kidneys (qRT-PCR) (Fgg gene (kidneys)): significantly suppressed
